US4284631A, “7-Substituted cephem compounds and pharmaceutical antibacterial compositions containing them” (Fujisawa Pharmaceutical Co., Ltd., priority 1978, dated 1981)
Converted amounts (≈) assume the structure as drawn. Where a name gives a salt, the structure may show the parent alone.

Tests used:
Test in all cases: In vitro antibacterial activity, two-fold agar-plate dilution method
Type in all cases: cell-based
[1] = system: Staphylococcus aureus 209 P JC-1; details: 209PJC1, HI-agar, 37° C., 20 hours, read-out: MIC (minimal inhibitory concentration)
Description: (§1) In vitro antibacterial activity was determined by the two-fold agar-plate dilution method as described below.
(§2) One loopful of the 100-fold dilution of an overnight culture of each test strain in Trypticasesoy broth was streaked on heart infusion agar (HI-agar) containing graded concentrations of the test compound and incubated at 37° C. for 20 hours. The minimal inhibitory concentration (MIC) was expressed in μg/ml.

Klebsiella pneumoniae 20 = details: HI-agar, 37° C., 20 hours, read-out: MIC (minimal inhibitory concentration)
Description: as §1, §2

Proteus mirabilis 18 = details: HI-agar, 37° C., 20 hours, read-out: MIC (minimal inhibitory concentration)
Description: as §1, §2

[2] = system: Proteus vulgaris IAM-1025; details: IAM1025, HI-agar, 37° C., 20 hours, read-out: MIC (minimal inhibitory concentration)
Description: as §1, §2

[3] = system: Escherichia coli NIHJ JC-2; details: NIHJJC2, HI-agar, 37° C., 20 hours, read-out: MIC (minimal inhibitory concentration)
Description: as §1, §2

[4] = system: Pseudomonus aeruginosa NCTC-10490; details: HI-agar, 37° C., 20 hours, read-out: MIC (minimal inhibitory concentration)
Description: as §1, §2

Structure (SMILES) | MIC [1] [µg/mL] | MIC (Klebsiella pneumoniae 20) [µg/mL] | MIC (Proteus mirabilis 18) [µg/mL] | MIC [2] [µg/mL] | MIC [3] [µg/mL] | MIC [4] [µg/mL]
N#CCO/N=C(\C(=O)NC1C(=O)N2C(C(=O)O)=CCSC12)c1csc(N)n1 (stereo not drawn) [Compound 1, 7-[2-(2-aminothiazol-4-yl)-2-cyanomethoxyiminoacetamido]-3-cephem-4-carboxylic acid (syn isomer)] | 6.25 (≈ 15.3 µM) | 0.025 (≈ 0.0612 µM) | 0.025 (≈ 0.0612 µM) | 0.025 (≈ 0.0612 µM) | 0.05 (≈ 0.122 µM) | 1.56 (≈ 3.82 µM)
CCOCCO/N=C(\C(=O)NC1C(=O)N2C(C(=O)O)=CCSC12)c1csc(N)n1 (stereo not drawn) [Compound 3, 7-[2-(2-aminothiazol-4-yl)-2-(2-ethoxyethoxyimino)acetamido]-3-cephem-4-carboxylic acid (syn isomer)] | 3.13 (≈ 7.09 µM) | 0.025 (≈ 0.0566 µM) | 0.2 (≈ 0.453 µM) | 0.025 (≈ 0.0566 µM) | 0.2 (≈ 0.453 µM) | 1.56 (≈ 3.53 µM)
CSCO/N=C(\C(=O)NC1C(=O)N2C(C(=O)O)=CCSC12)c1csc(N)n1 (stereo not drawn) [Compound 4, 7-[2-(2-aminothiazol-4-yl)-2-(methylthiomethoxyimino)acetamido]-3-cephem-4-carboxylic acid (syn isomer)] | 1.56 (≈ 3.63 µM) | 0.025 (≈ 0.0582 µM) | 0.05 (≈ 0.116 µM) | 0.025 (≈ 0.0582 µM) | 0.05 (≈ 0.116 µM) | 1.56 (≈ 3.63 µM)
NCc1ccc(CO/N=C(\C(=O)NC2C(=O)N3C(C(=O)O)=CCSC23)c2csc(N)n2)cc1 (stereo not drawn) [Compound 5, 7-[2-(2-aminothiazol-4-yl)-2-(4-aminomethylbenzyloxyimino)acetamido]-3-cephem-4-carboxylic acid dihydrochloride (syn isomer)] | 0.78 | 0.05 | 0.1 | 0.05 | 0.1 | 3.13

The remaining compounds from weak to strong by MIC [1], led by results:

MIC [1] [µg/mL] | MIC (Klebsiella pneumoniae 20) [µg/mL] | MIC (Proteus mirabilis 18) [µg/mL] | MIC [2] [µg/mL] | MIC [3] [µg/mL] | MIC [4] [µg/mL] | Structure (SMILES)
12.5 (≈ 30.2 µM) | 0.025 (≈ 0.0605 µM) | 0.025 (≈ 0.0605 µM) | 0.025 (≈ 0.0605 µM) | 0.05 (≈ 0.121 µM) | 3.13 (≈ 7.57 µM) | Nc1nc(/C(=N/OCCO)C(=O)NC2C(=O)N3C(C(=O)O)=CCSC23)cs1 (stereo not drawn) [Compound 2, 7-[2-(2-aminothiazol-4-yl)-2-(2-hydroxyethoxyimino)acetamido]-3-cephem-4-carboxylic acid (syn isomer)]
3.13 (≈ 6.95 µM) | 0.025 (≈ 0.0555 µM) | 0.1 (≈ 0.222 µM) | 0.025 (≈ 0.0555 µM) | 0.1 (≈ 0.222 µM) | 1.56 (≈ 3.46 µM) | Nc1nc(/C(=N/OCc2ccon2)C(=O)NC2C(=O)N3C(C(=O)O)=CCSC23)cs1 (stereo not drawn) [Compound 6, 7-[2-(2-aminothiazol-4-yl)-2-(3-isoxazolylmethoxyimino)acetamido]-3-cephem-4-carboxylic acid (syn isomer)]
